Experimental findings from patent US10583162B2, “Compositions useful in the prevention and/or treatment of osteoarticular inflammation and pain and cartilage damage” (Indena S.P.A., priority 2016, dated 2020) are described below.

The subject of data set [1] is patients suffering from joint disease of the knee with constant pain. Put plainly: Analgesic activity on analogue pain scale 0 to 10 (Example 6). It is filed as in vivo, Humans. The following applies: second day. The source says:
40 patients suffering from joint disease of the knee with constant pain were randomised and treated with two tablets a day, one in the morning and one in the evening, of the composition of example 4, or a placebo (consisting of the carrier only), or the ingredients of the composition of example 1 added individually to the placebo formulation in amounts equal to those present in the composition of example 4.
Efficacy was scored on an international analogue pain scale with scores from 0 to 10, 10 points indicating maximum pain and 0 the disappearance of pain. The effect was evaluated on the second day after administration of the tablet, in the morning 60 and 120 minutes after treatment.

Data set [2] concerns patients with osteoarthritis, mainly located in the knee. The data set can be described thus: Blinded study vs piroxicam and placebo, analgesic effect on WOMAC scale (Example 5). It is filed as in vivo, Humans. From the text:
The analgesic activity of a composition according to the invention comprising Vitis vinifera extract complexed with phospholipids, lipophilic extract of Zingiber officinale, lipophilic extract of Zanthoxylum piperitum and an unsaponifiable fraction of Olea europaea was compared with the activity of piroxicam and a placebo. In a blinded study conducted on 180 patients with osteoarthritis, mainly located in the knee, the composition of example 1 was compared with piroxicam and a placebo by conducting a three-month treatment after randomisation, and check-ups on the joint function for six months after discontinuance of the treatment. At the beginning, the analgesic effect, measured with the Western Ontario and McMaster University Osteoarthritis (WOMAC) scale, was evaluated after 7 days' treatment with two capsules/day of the composition of example 1 vs. two […] capsules of piroxicam or placebo. After the first 7 days, the treatment continued for three months, the analgesic effect being measured once a month.

For the compound `CC(=O)Oc1cccc2c1C(=O)c1c(OC(C)=O)cc(C(=O)O)cc1C2=O` [Diacerein, diacerein], the “Pain (scores) at time 60 min.” value in data set [1] (60 minutes after treatment) was determined as 8.2 ± 0.9. Also, the “Pain (scores) at time 120 min.” value in data set [1] (120 minutes after treatment) was found to be 7.9 ± 0.8. Further, in data set [1] (time 0 (before the morning tablet)), the “Pain (scores) at time 0” value worked out at 9.1 ± 1.5.
Regarding `CN1C(C(=O)Nc2ccccn2)=C(O)c2ccccc2S1(=O)=O` [piroxicam], the “result (analgesic effect, WOMAC scale)” value in data set [2] (4th month, after discontinuance of the treatment) is on record as −41%+/−38; in data set [2] (5th month, after discontinuance of the treatment), −24%+/−23; in data set [2] (during the third month's treatment, two capsules/day) it was −72%+/−31.4. For the same compound, the “efficacy maintained after discontinuance of the treatment” value in data set [2] (double-blind trial, after discontinuance) is given as “needed to continue the treatment”. Besides, in data set [2] (three-month treatment), the tolerability result is “had to be discontinued due to evident side effects”. For the same compound, the “analgesic effect (comparison of the two treated groups)” value in data set [2] (three-month treatment, WOMAC) is given as “comparable analgesic effect”.
